Biological target: Beta-glucuronidase (Escherichia coli (strain K12), UniProt P05804)
Assay: β-Glucuronidase Activity Assay
Description: The β-glucuronidase assay was performed by the addition of 0.5 μl of compound (or DMSO) to the well of a black 384-well plate followed by the addition of 30 μl of diluted β-glucuronidase enzyme. […] After a 30 minute incubation at room temperature, the reaction was stopped by the addition of 20 ul 1 M Na2CO3. […] Minimum (min) controls were performed using reactions with no enzyme. Maximum (max) controls were performed using no compound. 1% DMSO was maintained in all reactions. Percent inhibition was calculated using RFU data by the following formula: [1−(assay readout-average of min)/(Average of Max-Average of Min)]×100

Sequence of Beta-glucuronidase (P05804 whole entry): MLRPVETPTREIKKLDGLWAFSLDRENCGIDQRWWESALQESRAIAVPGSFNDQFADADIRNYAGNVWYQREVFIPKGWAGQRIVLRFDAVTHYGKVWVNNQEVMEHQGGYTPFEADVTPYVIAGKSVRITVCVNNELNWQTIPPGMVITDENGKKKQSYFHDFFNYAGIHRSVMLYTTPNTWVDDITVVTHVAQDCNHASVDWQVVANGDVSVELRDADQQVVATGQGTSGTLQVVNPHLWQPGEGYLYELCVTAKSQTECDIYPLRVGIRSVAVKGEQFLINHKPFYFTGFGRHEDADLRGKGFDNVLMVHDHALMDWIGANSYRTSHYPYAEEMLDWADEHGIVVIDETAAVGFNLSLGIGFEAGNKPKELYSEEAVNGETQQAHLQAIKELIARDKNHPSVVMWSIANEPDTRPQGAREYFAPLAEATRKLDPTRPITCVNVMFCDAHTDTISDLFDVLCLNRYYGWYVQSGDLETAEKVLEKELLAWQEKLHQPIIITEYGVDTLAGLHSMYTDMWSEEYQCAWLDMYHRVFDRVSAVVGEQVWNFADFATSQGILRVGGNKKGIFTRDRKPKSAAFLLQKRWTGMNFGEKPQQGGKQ

Q: With O=S(=O)(NCc1cccc2ccccc12)c1cc(Cl)c(Oc2ccc3c(c2)OCO3)s1 [US9617239, BRITE-355233] as the compound, how does the IC50 read?
A: Its IC50 is 376 µM.
